Drawing on ChEMBL document CHEMBL1201862, “PubChem BioAssay data set” (2004), this text covers EC50 and AC50 for 38 compounds.

The source made the active and inactive calls. Bounds are passed on as bounds.

Experiment [1] can be described thus: luciferase reporter signal suppression in cells – H4 neuroglioma cells, luminescence, dose response (AID 1990). It is filed as functional, cell-based. (In general: In a reporter assay the amount or activity of a reporter protein is the signal.)
A short description of experiment [2]: Luminescence Cell-Based Dose Response HTS to Identify Inhibitors of 5'UTR Stem-Loop Driven Prion Protein mRNA Translation in H4 Neuroglioblastoma Cells. [Related pubchem assays: 1827 (Project Summary), 1813 (Primary HTS)]. In kind it is functional.
The nature of experiment [3]: alpha-synuclein stem-loop luciferase translation blockers – H4 neuroglioma cells, luminescence, confirmation (AID 1988). It is filed as functional, cell-based.
Experiment [4] has as its target Cytochrome P450 2C19 (Homo sapiens, UniProt P33261). In words: Cytochrome panel assay with activity outcomes. Panel member name: p450-cyp2c19 Compounds with AC50 equal or less than 10 uM are considered active. It is filed as functional. Particulars: read-out: AC50.
In experiment [5] the target is Cytochrome P450 2D6 (Homo sapiens, UniProt P10635).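 Note: CYP2D6 member of a cytochrome P450 panel assay.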
Sequence of Cytochrome P450 2D6 (P10635 whole entry): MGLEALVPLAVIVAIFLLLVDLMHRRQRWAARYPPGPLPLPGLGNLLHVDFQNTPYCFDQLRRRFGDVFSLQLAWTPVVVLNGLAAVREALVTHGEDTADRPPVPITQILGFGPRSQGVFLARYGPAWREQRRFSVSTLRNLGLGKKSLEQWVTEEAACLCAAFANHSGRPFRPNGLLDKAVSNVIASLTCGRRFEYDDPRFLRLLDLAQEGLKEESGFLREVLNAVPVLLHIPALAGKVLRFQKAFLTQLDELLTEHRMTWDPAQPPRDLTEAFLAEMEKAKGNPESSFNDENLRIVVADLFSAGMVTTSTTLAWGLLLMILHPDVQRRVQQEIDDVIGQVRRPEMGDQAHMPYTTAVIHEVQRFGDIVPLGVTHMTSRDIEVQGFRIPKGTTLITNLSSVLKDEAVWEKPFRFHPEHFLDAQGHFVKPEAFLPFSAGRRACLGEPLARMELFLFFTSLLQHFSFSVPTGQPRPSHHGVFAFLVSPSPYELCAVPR
Experiment [6] has as its target Cytochrome P450 3A4 (Homo sapiens, UniProt P08684).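 Note: CYP3A4 tested as one member of a cytochrome P450 panel screen.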
Experiment [7] can be described thus: NIH-3T3 fibroblast cytotoxicity, dose response, cytotoxicity control, cell-based, fluorescence, Alamar Blue, secondary assay (AID 2327).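 Note: NIH-3T3 mouse fibroblasts cultured with fluconazole at 8 µg/mL.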 In kind it is functional. (Alamar Blue is a resazurin reagent that responds to reducing activity.)
Experiment [8] concerns the target Cytochrome P450 2C9 (Homo sapiens, UniProt P11712).
For experiment [9], the target named is Luciferin 4-monooxygenase (Photinus pyralis, UniProt P08659). In words: inhibition of purified Photinus pyralis luciferase – biochemical, luminescence, dose response (AID 1891).
Sequence of Luciferin 4-monooxygenase (P08659 whole entry): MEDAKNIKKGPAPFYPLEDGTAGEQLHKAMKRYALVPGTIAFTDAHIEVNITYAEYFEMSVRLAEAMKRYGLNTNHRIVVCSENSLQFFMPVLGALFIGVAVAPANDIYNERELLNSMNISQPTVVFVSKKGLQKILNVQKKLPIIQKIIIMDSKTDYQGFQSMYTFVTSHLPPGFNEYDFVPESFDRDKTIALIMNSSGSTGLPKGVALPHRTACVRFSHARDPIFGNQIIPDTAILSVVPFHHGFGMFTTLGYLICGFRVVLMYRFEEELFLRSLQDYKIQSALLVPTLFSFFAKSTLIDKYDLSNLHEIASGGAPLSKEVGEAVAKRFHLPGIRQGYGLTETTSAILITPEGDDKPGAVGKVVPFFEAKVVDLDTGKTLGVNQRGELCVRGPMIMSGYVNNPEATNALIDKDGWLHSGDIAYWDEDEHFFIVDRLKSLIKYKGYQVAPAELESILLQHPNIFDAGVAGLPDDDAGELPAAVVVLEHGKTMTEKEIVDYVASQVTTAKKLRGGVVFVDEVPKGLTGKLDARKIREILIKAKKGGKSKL
Experiment [10] can be described thus: Luminescence Cell-Based Dose Confirmation HTS to Identify Inhibitors of Platelet Dense Granule Release. [Related pubchem assays: 1663 (Primary HTS), 1678 (Summary of Project)]. It is filed as functional.
For experiment [11], the target named is T1, Cytochrome P450 1A2 (Homo sapiens, UniProt P05177).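 Note: PubChem cytochrome P450 panel assay, CYP1A2 panel member.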
T1 sequence (P05177 whole entry): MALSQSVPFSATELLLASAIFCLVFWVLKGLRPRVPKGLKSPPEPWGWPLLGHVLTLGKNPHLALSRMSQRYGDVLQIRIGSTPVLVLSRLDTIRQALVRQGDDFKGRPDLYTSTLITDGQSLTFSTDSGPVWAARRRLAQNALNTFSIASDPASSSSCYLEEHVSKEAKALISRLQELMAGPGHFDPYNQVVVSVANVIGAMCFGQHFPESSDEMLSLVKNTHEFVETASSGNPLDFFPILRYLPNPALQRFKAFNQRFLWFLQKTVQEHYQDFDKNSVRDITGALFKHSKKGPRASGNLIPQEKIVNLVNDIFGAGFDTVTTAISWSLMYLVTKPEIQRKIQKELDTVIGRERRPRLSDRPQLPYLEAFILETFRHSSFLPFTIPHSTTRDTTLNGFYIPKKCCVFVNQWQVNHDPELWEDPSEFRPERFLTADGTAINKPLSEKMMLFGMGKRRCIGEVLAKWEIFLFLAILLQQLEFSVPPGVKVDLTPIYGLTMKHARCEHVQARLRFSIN

In experiment [12] the test system is INS1. In words: INS-1E survival protection against cytokine death – cell-based, luminescence, retest, dose response (AID 449756).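 Note: cell death triggered by IL-1 beta plus TNF-alpha plus IFN-gamma mixture; protective hits raise ATP signal compared with cytokine alone wells.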 In kind it is functional. Particulars: Rattus norvegicus.
For experiment [13], the target named is Paired box protein Pax-8 (Homo sapiens, UniProt Q06710). In words: PAX8 transcriptional activity inhibition in RMG-I – RMG-I cells, luciferase, cherry-pick, dose response (AID 687027).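 Note: luciferase reporter driven by Pax8 target thyroperoxidase promoter measured by SteadyGlo luminescence.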 It is filed as functional, cell-based.
Sequence of Paired box protein Pax-8 (Q06710 whole entry): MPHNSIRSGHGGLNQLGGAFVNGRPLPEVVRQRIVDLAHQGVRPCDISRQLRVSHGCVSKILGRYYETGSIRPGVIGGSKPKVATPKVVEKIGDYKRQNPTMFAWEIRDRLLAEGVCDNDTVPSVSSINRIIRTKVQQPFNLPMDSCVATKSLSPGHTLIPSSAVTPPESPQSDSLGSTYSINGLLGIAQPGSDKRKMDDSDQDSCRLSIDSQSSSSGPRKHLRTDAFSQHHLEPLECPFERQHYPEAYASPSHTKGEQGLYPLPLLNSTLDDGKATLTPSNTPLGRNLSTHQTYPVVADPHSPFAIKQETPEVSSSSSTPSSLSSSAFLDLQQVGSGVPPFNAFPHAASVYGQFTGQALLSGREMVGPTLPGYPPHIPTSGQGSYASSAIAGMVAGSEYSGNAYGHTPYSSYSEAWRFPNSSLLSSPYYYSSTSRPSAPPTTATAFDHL

Sequence of Cytochrome P450 2C9 (P11712 whole entry): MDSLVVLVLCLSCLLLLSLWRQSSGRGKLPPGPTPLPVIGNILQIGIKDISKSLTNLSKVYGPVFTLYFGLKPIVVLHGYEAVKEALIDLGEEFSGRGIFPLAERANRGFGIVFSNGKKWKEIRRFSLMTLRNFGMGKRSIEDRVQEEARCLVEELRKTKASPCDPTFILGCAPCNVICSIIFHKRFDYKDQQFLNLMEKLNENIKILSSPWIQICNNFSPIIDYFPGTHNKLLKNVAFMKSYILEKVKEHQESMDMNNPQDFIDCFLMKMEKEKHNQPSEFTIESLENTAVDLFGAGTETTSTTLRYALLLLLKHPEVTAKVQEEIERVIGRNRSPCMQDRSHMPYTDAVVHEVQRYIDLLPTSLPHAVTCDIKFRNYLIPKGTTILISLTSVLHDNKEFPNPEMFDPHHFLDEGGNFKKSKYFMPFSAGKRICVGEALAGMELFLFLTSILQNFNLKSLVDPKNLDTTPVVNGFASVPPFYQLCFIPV
Sequence of Cytochrome P450 2C19 (P33261 whole entry): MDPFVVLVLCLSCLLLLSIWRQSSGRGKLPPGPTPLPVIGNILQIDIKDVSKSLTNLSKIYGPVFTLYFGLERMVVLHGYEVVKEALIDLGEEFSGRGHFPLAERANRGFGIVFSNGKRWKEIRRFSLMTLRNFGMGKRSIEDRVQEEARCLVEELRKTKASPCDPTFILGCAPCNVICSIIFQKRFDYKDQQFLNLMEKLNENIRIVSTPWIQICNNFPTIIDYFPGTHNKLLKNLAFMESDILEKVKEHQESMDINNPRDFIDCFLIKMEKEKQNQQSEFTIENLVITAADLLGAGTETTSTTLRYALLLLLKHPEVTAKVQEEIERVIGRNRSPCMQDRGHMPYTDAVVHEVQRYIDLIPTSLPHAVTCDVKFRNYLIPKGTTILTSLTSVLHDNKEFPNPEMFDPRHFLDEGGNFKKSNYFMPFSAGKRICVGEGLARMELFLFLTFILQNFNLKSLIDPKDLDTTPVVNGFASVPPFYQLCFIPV
Sequence of Cytochrome P450 3A4 (P08684 whole entry): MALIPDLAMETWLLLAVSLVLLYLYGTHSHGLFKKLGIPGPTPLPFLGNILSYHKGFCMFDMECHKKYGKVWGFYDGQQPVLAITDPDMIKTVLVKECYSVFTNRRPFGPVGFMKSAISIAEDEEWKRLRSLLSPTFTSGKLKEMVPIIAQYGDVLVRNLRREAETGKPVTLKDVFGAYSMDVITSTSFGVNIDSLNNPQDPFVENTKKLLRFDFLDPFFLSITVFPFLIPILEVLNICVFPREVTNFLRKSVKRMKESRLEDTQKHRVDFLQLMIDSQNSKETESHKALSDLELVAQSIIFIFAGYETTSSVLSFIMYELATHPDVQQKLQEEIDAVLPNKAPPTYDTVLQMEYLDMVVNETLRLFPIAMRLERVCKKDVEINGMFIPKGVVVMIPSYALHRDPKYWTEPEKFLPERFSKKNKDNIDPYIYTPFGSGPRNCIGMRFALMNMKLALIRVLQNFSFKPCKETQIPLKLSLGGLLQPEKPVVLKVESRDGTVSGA

Take `CC1C(C#N)=C(N)OC2=C1C(=O)CC(C)(C)C2` (stereo unspecified): the 50% effective concentration (EC50) in experiment [1] is > 120 µM (not active); in experiment [2], > 120 µM (not active); in experiment [3], 19.8 µM (active).

Turning to `CC(NC(=O)c1cccc(F)c1)C(c1cccs1)N1CCN(C)CC1` (stereo unspecified), the figures for the concentration at half-maximal activity (AC50) in [4], in [5] and in experiment [6] were 31.6 µM (inconclusive), 15.8 µM (inconclusive) and 15.8 µM (inconclusive), respectively.

As to `Cc1cc(Cl)ccc1OCc1cn2cccnc2n1`, the EC50 in experiment [7] is > 160 µM (inactive).

With `COc1ccc2c(c1)O[C@@H](c1cccc(C(F)(F)F)c1)[C@H](O)C2=O`, the EC50 in experiment [1], in experiment [2] and in experiment [3] was > 120 µM (not active) each time.

Regarding `COCCn1c(=O)c(-c2ccc(F)cc2)nc2cnc(N(C)C)nc21`, the AC50 was 0.631 µM (inconclusive) in [5] and 12.6 µM (inconclusive) in experiment [8].

On to `CN(C)S(=O)(=O)c1cccc(NC(=O)CSc2nnnn2-c2ccccc2)c1`, for which the concentration for a half-maximal effect (EC50) in [9] and in [10] was > 112 µM (not active) in each case.

As for `FC(F)(F)c1ccccc1-c1cc(NCCN2CCOCC2)ncn1`, the half-maximal activity concentration (AC50) in experiment [5] is 39.8 µM (inconclusive); in experiment [11] it was 12.6 µM (inconclusive).

Take `CCCCCC1=C2CNC(CC(C)C)(C(=O)OC)C=C2C(C)C1=O` (stereo unspecified): the AC50 was 6.31 µM (inconclusive) in experiment [4], 25.1 µM (inconclusive) in [11] and 15.8 µM (inconclusive) in experiment [6].

Regarding `ON(CCc1ccncc1)Cc1ccccc1`, in [5], the AC50 was 6.31 µM (inconclusive).

For the compound `Cc1sc(NC(=O)c2ccco2)c(C(c2cccnc2)N2CCN(C)CC2)c1C` (stereo unspecified), the AC50 in experiment [5] was 12.6 µM (inconclusive); in experiment [8], 2.82 µM (inconclusive).

With `CNC(=O)NC(=O)CSc1nnc(-c2ccco2)n1Cc1ccccc1`, the AC50 in experiment [4] is 35.5 µM (inconclusive); in experiment [6], 22.4 µM (inconclusive).

Turning to `CC(C)CNC(=O)COc1ccccc1[N+](=O)[O-]`, the 50% effective concentration (EC50) in [9] was > 112 µM (not active); in experiment [10] it was 18.7 µM (active).

In the case of `O=C(/C=C\C=C/c1ccc2c(c1)OCO2)N1CCCCC1`, in experiment [5], the half-maximal activity concentration (AC50) is 12.6 µM (inconclusive).

As to `Cc1cc2nc(O)c([C@H](C)C(=O)c3ccc(Cl)cc3)nc2cc1C`, the concentration at half-maximal activity (AC50) is 0.0794 µM (inconclusive) in experiment [4] and 0.501 µM (inconclusive) in [11].

For `COc1cccc(-c2noc(-c3cccnc3)n2)c1`, in [5], the half-maximal activity concentration (AC50) was 20 µM (inconclusive).

As for `O=C1[C@@H]2[C@@H](C(=O)N1c1ccc(OCc3ccccc3)cc1)[C@@H]1c3ccccc3[C@@H]2[n+]2ccccc21`, the AC50 in [5] was 3.98 µM (inconclusive).

Consider `Cc1ccc(Cl)cc1NC(=O)c1ccc(Cn2cc(Cl)cn2)cc1`, for which the EC50 is 14.4 µM (active) in [1], 13.7 µM (active) in experiment [2] and 12.2 µM (active) in [3].

For `O=C(NCCc1csc(-c2cccnc2)n1)c1cccs1`, the EC50 in [9] and in [10] was > 112 µM (not active) in each case.

On to `COc1cccc(-c2noc(C3CCCN(C(=O)c4ccccc4OC)C3)n2)c1` (stereo unspecified), for which the EC50 in experiment [9] and in experiment [10] was > 112 µM (not active) throughout.

As to `O=C(Oc1ccc([N+](=O)[O-])cc1)N1CCC(N2CCCCC2)CC1`, the AC50 in [5] was 39.8 µM (inconclusive); in [11], 20 µM (inconclusive).

In the case of `Cc1cc(NC(=O)c2c(F)cccc2F)n(-c2nc3ccccc3[nH]2)n1`, the results for the AC50 in experiment [5], in experiment [6] and in [8] were 39.8 µM (inconclusive), 3.55 µM (inconclusive) and 4.47 µM (inconclusive), respectively.

For `CCN(CC)c1nc(O)nc(N(CC)CC)n1`, the figures for the EC50 in experiment [1], in experiment [2] and in experiment [3] were > 120 µM (not active), > 120 µM (not active) and 44.7 µM (active), respectively.

With `COC(=O)C1(C)CN(S(=O)(=O)c2ccc(C)cc2)c2cc(OC)ccc2C1=O` (stereo unspecified), the 50% effective concentration (EC50) in experiment [9] and in experiment [10] was > 112 µM (not active) throughout.

Regarding `CCOC(=O)c1ccc(NC(=O)CSc2nc3c(c(=O)n2C)SC(C)C3)cc1` (stereo unspecified), the EC50 in [9] and in experiment [10] was > 112 µM (not active) in each case.

For `Cc1nc2sccn2c(=O)c1S(=O)(=O)N1CCN(c2cccc(Cl)c2)CC1`, the concentration giving a half-maximal response (EC50) in experiment [9] and in [10] was > 112 µM (not active) in each case.

For `COCOc1ccc(Br)cc1C(=O)[C@H]1O[C@H]1c1cccc(OC)c1`, the AC50 in experiment [5] is 3.16 µM (inconclusive).

For `CC(C)(C)c1ccc(Oc2ccc(NC(=O)c3ccccc3C(=O)O)cn2)cc1`, the EC50 in [1] was 11 µM (active); in experiment [2], 12 µM (active); in experiment [3] it was 11.6 µM (active).

Regarding `Cc1cc(=O)oc2cc(OCCSCCN3CCOCC3)ccc12`, the EC50 in experiment [9] and in [10] was > 112 µM (not active) in each case.

As for `COc1ccc(C2C3=C(CC(C)(C)CC3=O)Oc3ncn(CC(C)C)c(=N)c32)cc1` (stereo unspecified), the half-maximal activity concentration (AC50) in experiment [4] and in experiment [8] was 39.8 µM (inconclusive) each time.

`c1ccc(-[n+]2nc(Nc3cccc4ccccc34)sc2-c2c3ccccc3cc3ccccc23)cc1`: the AC50 in experiment [12] was 3.17 µM (active).

Regarding `CC(C)(C)C1CCc2c(sc(NC(=O)c3cc(C4CC4)on3)c2C#N)C1` (stereo unspecified), the EC50 was > 112 µM (not active) in experiment [9] and 23.1 µM (active) in experiment [10].

On to `Nc1nnc(SCc2ccc(Cl)cc2)s1`, for which the EC50 in experiment [9] and in experiment [10] was > 112 µM (not active) throughout.

`CC#CCCCC(=O)Nc1cc(OC)nc(OC)n1`: the half-maximal activity concentration (AC50) in experiment [5] is 15.8 µM (inconclusive).

As to `CC(=O)OC(C)(C)/C=C/C(=O)C(C)(O)C1C(O)CC2(C)C3CC=C4C(CC(O)C(=O)C4(C)C)C3(C)C(=O)CC12C` (stereo unspecified), the AC50 in [13] is < 0.26 µM (active).

`CCOC(=O)C(NCCc1ccc(F)cc1)(NC(=O)CC)C(F)(F)F` (stereo unspecified): the AC50 in experiment [12] was > 260 µM (inactive).

Take `C[C@@H]1CN([C@@H](C)CO)C(=O)c2cc(NS(=O)(=O)c3ccccc3)ccc2O[C@@H](C)CCCCO[C@@H]1CN(C)Cc1ccc(C(F)(F)F)cc1`: in experiment [13], the concentration at half-maximal activity (AC50) was 5.71 µM (active).

On to `COc1ccc(NC(=O)Nc2ccc3c(c2)C(=O)N([C@@H](C)CO)C[C@@H](C)[C@@H](CN(C)CC2CCCCC2)OCCCC[C@@H](C)O3)cc1`, for which, in experiment [13], the AC50 was 14.5 µM (active).

For the compound `CO/N=C(/CNC(=O)c1cccc(Cl)c1)c1ccc(Cl)cc1`, the AC50 in experiment [5] was 25.1 µM (inconclusive).

As a reminder, the EC50 is the concentration at which the effect is half-maximal. The term AC50 denotes the concentration at which the activity in the assay is half-maximal.
